Data: PubChem BioAssay AID1208 (EPA DSSTox, 2008)
Active and inactive are the calls of the source.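 The calls were made as follows: active = at least one rat sex group has a carcinogenic potency value and tumor site recorded; inconclusive = only rat studies were judged inadequate by the national testing program; inactive = no potency or tumor site, with negative rat experiments.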

System: rat chronic carcinogenicity bioassay, TD50
Experiment: DSSTox (CPDBAS) Carcinogenic Potency Database Summary Rat Bioassay Results
Details: for outcome: TD50_Rat_Note: no positive results; for Potency: stronger effect = lower value
How it was run: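 The activity score maps log10(1/TD50_Rat_mmol) linearly onto 1–100; actives without a computed TD50, such as mixtures, receive 50. Source data are chronic rat carcinogenicity tests, using the most positive experiment for each sex.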

[1] = TargetSites_Rat_Female: no positive results
[2] = TD50_Rat_Note: TD50 is harmonic mean of more than one positive test, TargetSites_Rat_Female: thyroid gland
[3] = TD50_Rat_Note: TD50 is harmonic mean of more than one positive test, TargetSites_Rat_Female: liver
[4] = TD50_Rat_Note: TD50 is harmonic mean of more than one positive test, TargetSites_Rat_Female: urinary bladder

Question: Which outcome [1] does the source give for P here?
Answer: inactive; no positive results

Question: With O=c1cc[nH]c(=S)[nH]1 as the compound, how does the Potency [2] read?
Answer: 11.9 mg/kg/day

Question: C=C(C)[C@H]1Cc2c(ccc3c2O[C@@H]2COc4cc(OC)c(OC)cc4[C@@H]2C3=O)O1 was tested. Which outcome [1] did it give?
Answer: inactive; no positive results

Question: For C=C1C[C@@]23CC[C@H]4[C@@](C)(CCC[C@@]4(C)C(=O)O[C@@H]4O[C@H](CO)[C@@H](O)[C@H](O)[C@H]4O)[C@@H]2CC[C@]1(O[C@@H]1O[C@H](CO)[C@@H](O)[C@H](O)[C@H]1O[C@@H]1O[C@H](CO)[C@@H](O)[C@H](O)[C@H]1O)C3, which outcome [1] is on record?
Answer: inactive; no positive results

Question: With CC(N)=O as the compound, how does the Potency [3] read?
Answer: 180 mg/kg/day

Question: Which Potency (TD50_Rat_Note: TD50 is harmonic mean of more than one positive test, TargetSites_Rat_BothSexes: esophagus, liver, nasal cavity) does the source give for O=NN1CCCCC1 here?
Answer: 1.43 mg/kg/day

Question: CC(Oc1c(Cl)cccc1Cl)C1=NCCN1 (stereo not given) was tested. Which outcome [1] did it give?
Answer: inactive; no positive results

Question: Which Potency [4] does the source give for COc1ccccc1N here?
Answer: 29.7 mg/kg/day

Question: For O=[N+]([O-])c1ccc(-c2cscn2)o1, which Potency (TargetSites_Rat_Female: mammary gland, stomach) is on record?
Answer: 7.68 mg/kg/day

Question: Which outcome [1] does the source give for CC1CN(N=O)C(=O)NC1=O (stereo not given) here?
Answer: inactive; no positive results

Question: How did the outcome [1] turn out when CCCCNC(=O)NS(=O)(=O)c1ccc(C)cc1 was run?
Answer: inactive; no positive results

Question: How did the outcome [1] turn out when C[C@]12CC[C@H]3C(=CCc4cc(OS(=O)(=O)O)ccc43)[C@@H]1CCC2=O was run?
Answer: inactive; no positive results

Question: With CCCc1ccc2c(c1)OCO2 as the compound, how does the Potency (TargetSites_Rat_BothSexes: esophagus) read?
Answer: 143 mg/kg/day

Question: With CC(Cl)(Cl)Cl as the compound, how does the outcome [1] read?
Answer: inactive; no positive results

Question: For CC(=O)c1ccc(S(=O)(=O)NC(=O)NC2CCCCC2)cc1, which outcome [1] is on record?
Answer: inactive; no positive results

Question: With CC/C(=C(\c1ccccc1)c1ccc(OCCN(C)C)cc1)c1ccccc1 as the compound, how does the Potency (TD50_Rat_Note: TD50 is harmonic mean of more than one positive test, harmonic mean of TD50 includes a value for upper 99% confidence li, TargetSites_Rat_Female: liver) read?
Answer: 3.96 mg/kg/day

Question: Which Potency (TD50_Rat_Note: TD50 is harmonic mean of more than one positive test) does the source give for C=CC(OC(C)=O)c1ccc2c(c1)OCO2 (stereo not given) here?
Answer: 25 mg/kg/day

Question: Which Potency does the source give for CN(C)c1ccc(C(=N)c2ccc(N(C)C)cc2)cc1 here?
Answer: 11 mg/kg/day

Question: With NC(=S)NNC(N)=S as the compound, how does the outcome [1] read?
Answer: inactive; no positive results

Question: With O=C1O[C@H]([C@H](O)CO)C(O)=C1O as the compound, how does the outcome [1] read?
Answer: inactive; no positive results

Question: CCCOC(=O)c1cc(O)c(O)c(O)c1 was tested. Which outcome [1] did it give?
Answer: inactive; no positive results

Question: For Cc1cccc(C)c1NC1=NCCCS1, which outcome is on record?
Answer: inactive; no positive results

Question: How did the Potency (TD50_Rat_Note: TD50 is harmonic mean of more than one positive test, TargetSites_Rat_Female: liver, nasal cavity, oral cavity) turn out when C=CN1CCCC1=O was run?
Answer: 12 mg/kg/day

Question: ClCCl was tested. Which Potency (TD50_Rat_Note: TD50 is harmonic mean of more than one positive test, TargetSites_Rat_Female: mammary gland) did it give?
Answer: 724 mg/kg/day

Question: O=C(O)CC(O)(CC(=O)O)C(=O)O was tested. Which outcome did it give?
Answer: inactive; no positive results

Question: For c1cc(OCC2CO2)cc(OCC2CO2)c1 (stereo not given), which Potency (TD50_Rat_Note: TD50 is harmonic mean of more than one positive test, TargetSites_Rat_Female: stomach) is on record?
Answer: 3.78 mg/kg/day

Question: Which Potency does the source give for COc1cccc(O)c1O here?
Answer: 48.7 mg/kg/day

Question: For CCCCCCCCCCCCC(=O)COC1=C(O)C(=O)O[C@@H]1[C@@H](O)CO, which outcome [1] is on record?
Answer: inactive

Question: With CC1CN(N=O)CC(C)N1C (stereo not given) as the compound, how does the Potency (TargetSites_Rat_Female: nasal cavity) read?
Answer: 0.151 mg/kg/day

Question: How did the Potency (TD50_Rat_Note: TD50 is harmonic mean of more than one positive test, harmonic mean of TD50 includes a value for upper 99% confidence li, TargetSites_Rat_Female: stomach) turn out when Oc1ccccc1O was run?
Answer: 71.5 mg/kg/day

Question: How did the outcome [1] turn out when CN(C)C(=O)Nc1cccc(C(F)(F)F)c1 was run?
Answer: inactive; no positive results

Question: [O]=[Cr](=[O])([OH])[O][Cr](=[O])(=[O])[OH] was tested. Which Potency did it give?
Answer: 4.64 mg/kg/day

Question: How did the Potency (TD50_Rat_Note: TD50 is harmonic mean of more than one positive test, TargetSites_Rat_Female: clitoral gland, ear Zymbals gland, large intestine, liver, lung, oral cavity, skin, small intestine) turn out when Cc1ccc(S(=O)(=O)Oc2ccc(N=Nc3ccc(-c4ccc(N=Nc5c(O)ccc6cc(S(=O)(=O)O)cc(S(=O)(=O)O)c56)c(C)c4)cc3C)cc2)cc1 was run?
Answer: 3.89 mg/kg/day

Question: Cc1cc(N=Nc2ccccc2C)ccc1N was tested. Which Potency [3] did it give?
Answer: 4.04 mg/kg/day

Question: With CN(C)c1ccc(Cc2ccc(N(C)C)cc2)cc1 as the compound, how does the Potency [2] read?
Answer: 16.4 mg/kg/day

Question: With CN(C)CCOc1ccc(/C(=C(/CCCl)c2ccccc2)c2ccccc2)cc1 as the compound, how does the outcome [1] read?
Answer: inactive; no positive results

Question: For C[C@]12CC[C@H](O)CC1=CC[C@@H]1[C@@H]2CC[C@]2(C)C(=O)CC[C@@H]12, which Potency [3] is on record?
Answer: 83.5 mg/kg/day

Question: For S=C(NC1CCCCC1)NC1CCCCC1, which outcome [1] is on record?
Answer: inactive; no positive results

Question: Which Potency (TargetSites_Rat_Female: all tumor bearing animals) does the source give for O=C1NC(c2ccc([N+](=O)[O-])s2)Nc2ccccc21 (stereo not given) here?
Answer: 1.53 mg/kg/day

Question: With C=CC(N)=O as the compound, how does the Potency (TD50_Rat_Note: TD50 is harmonic mean of more than one positive test, TargetSites_Rat_Female: clitoral gland, mammary gland, nervous system, oral cavity, thyroid gland, uterus) read?
Answer: 3.75 mg/kg/day

Question: With Nc1ccc2c(c1)C(=O)c1ccccc1C2=O as the compound, how does the Potency [1] read?
Answer: 101 mg/kg/day

Question: For C[C@@H]1O[C@@]2(CS1)CN1CCC2CC1, which outcome [1] is on record?
Answer: inactive; no positive results

Question: For CCOC(=O)CC(SP(=O)(OC)OC)C(=O)OCC (stereo not given), which outcome [1] is on record?
Answer: inactive; no positive results

Question: O=NN(c1ccccc1)c1ccccc1 was tested. Which Potency [4] did it give?
Answer: 167 mg/kg/day

Question: Which Potency (TD50_Rat_Note: TD50 is harmonic mean of more than one positive test, TargetSites_Rat_Female: stomach, urinary bladder) does the source give for Nc1ccc(Cl)cc1N here?
Answer: 214 mg/kg/day
